Reference: patent US20250177392A1, “BROAD SPECTRUM INHIBITORS OF CYTOMEGALOVIRUS” (MICROBIOTIX, INC., priority 2022, published 2025)
pIC50: −log10 of the molar value.

Assays:
[1] = system: NHDF cells; experiment: Cell number by Hoechst stain (cell proliferation); type: cell-based, human; conditions: up to 50 μM, 6 day period; cycloheximide 50 μg/mL
Experimental: (§1) Fibroblasts were treated with increasing concentrations of MBX-4992 and MBXC-4336 for up to 6 days and cell number was measured periodically using Hoechst stain to quantify cell proliferation (A and B). Cyclohexamide (CHX) and DMSO (−) were used as positive and negative controls for cytotoxicity respectively. Cell cytostaticity (C and D) was assessed using ATP-based CellTiter Glo luciferase assay following extended incubation with increasing concentrations of MBX-4992 and MBXC-4336 for 1 or 6 days. Relative light units (RLU) were measured following cell lysis and normalized to DMSO treated cells for each time point.
(§2) The CellTiter Glo Luminescent Assay (Promega Inc, Madison, WI) was performed according to the manufacturer's instruction. NHDF cells (10^4) were plated in a 96-well plate overnight and treated with MBX-4992 or MXC-4336 ([…]) in triplicate for up to 6 days. Cyclohexamide (50 μg/mL) was used as a control. CellTiter Glo substrate was added in a 1:1 ratio with media and CellTiter-Glo reagent followed by the analysis of luciferase activity (relative light units, RLU) using a BioTek Synergy H1 microplate reader. In parallel, an identical plate was labelled with Hoescht reagent (25 μg/mL) to quantify the cell number using a Celigo Cytometer.
(§3) Next, the cytostaticity and cytotoxicity of treatment with MBX-4992 and MBXC-4336 was analyzed. […]

[2] = system: NHDF cells; experiment: CellTiter Glo ATP luciferase assay; type: cell-based, human; conditions: 0-50 μM, 1 or 6 days; cycloheximide 50 μg/mL
Experimental: as §1, §2, §3

[3] = system: AD169^R (IE1 expression); experiment: Western blot (immunoblot) of IE1 expression in AD169^R-infected cells; type: cell-based, Human cytomegalovirus; conditions: NHDF cells, 24 hpi; MBX-4992 1-10 μM, ganciclovir 5 μM, convallotoxin 0.01 μM
Experimental: The molecular weight markers and respective proteins are indicated.
FIGS. 12A and B are Western Blot assays showing that MBXC-4336 limits expression of IE1 in fibroblasts and epithelial cells. Total cell lysates from AD169^R-infected (MOI 0.2) NHDF (A) and ARPE-19 (B) cells pre-treated with DMSO, MBX-4336 (0, 1, 5, 10, or 20 μM), or heparin (50 μg/mL) collected at 48 hpi were subjected to Western blot analysis using a rabbit anti-IE-1 antibody (lanes 1-7) and an anti-GAPDH antibody (lanes 8-14) as a loading control. The molecular weight markers and respective proteins are indicated.
Total cell lysates from virus infected NHDF cells treated with compounds were created through SDS-lysis (10^4/100 uL of 1% SDS) of at least three rounds of heating at 95° C. for 3 min and vigorous agitation. The total cell lysates were resolved using an SDS-polyacrylamide gel (12.5%), transferred to a PVDF membrane using a semi-dry apparatus. The membrane was then incubated with 1% BSA/PBS for 1 hr at room temperature followed by incubation with anti-IE1 and anti-GAPDH. Finally, the respective secondary antibody conjugated with HRP was incubated with membrane followed by detection using ECL reagents (Millipore).
Next, inhibition of the expression of IE1 in AD169^R-infected cells treated with MBX-4992 was examined by immunoblot analysis (FIG. 4E). […] Collectively, these findings further indicate that MBX-4992 effectively prevents the expression of the immediate-early genes during a CMV infection.

[4] = system: HCMV AD169; experiment: Herpes virus panel neutralization, HCMV AD169; type: cell-based, Human cytomegalovirus; conditions: Human betaherpesvirus 5; HCMV AD169; read-out: IC50
Experimental: (§4) To determine the specificity of MBX-4992, additional neutralization experiments were conducted using a panel of herpes viruses performed in the presence of MBX-4992. […] Collectively, the antiviral activity of MBX-4992 is equivalent to that of GCV indicating specific inhibition of CMV replication.

[5] = system: HCMV GDGr K17 (GCV^R); experiment: Herpes virus panel neutralization, GCV-resistant HCMV; type: cell-based, Human cytomegalovirus; conditions: Human betaherpesvirus 5
Experimental: as §4

[6] = system: MCMV Smith; experiment: Herpes virus panel neutralization, MCMV; type: cell-based, Murine cytomegalovirus; conditions: Murid betaherpesvirus 1; MCMV Smith; read-out: IC50
Experimental: as §4

[7] = system: AD169^R CMV virus; experiment: Plaque reduction (dissemination) assay, prophylactic treatment; type: cell-based, Human cytomegalovirus; conditions: 2.5 μM, 10 dpi
Experimental: FIG. 8A-H are fluorescence images (A & B) and graphs showing that NAPA compounds MBX-4992 and MBXC-4336 work in both prophylactic and therapeutic settings to inhibit HCMV infection. ARPE-19 cells (A to D) and NHDF cells (E and F) treated with increasing concentrations (0, 1, 5, 20, and 50 μM) of MBX-4992, MBXC-4336, or ganciclovir (2.5 μM) were infected with AD169^R (MOI 0.025) and analyzed for viral plaques of >5,000 μm^2 (C and E) and >10,000 μm^2 (D and F) based on GFP fluorescence. The representative images of plaques from AD169^R-infected ARPE-19 cells treated MBX-4992, MBXC-4336, ganciclovir are shown (A and B). MBX-4992, MBXC-4336 (G and H), and ganciclovir treatment at 48 hpi of AD169^R-infected ARPE-19 cells (MOI 0.025) were analyzed for virus plaques >5,000 μm^2 and >10,000 μm^2 at 10 dpi. The normalized plaque number was designated to be 100 based on plaques from DMSO treated cells. Statistical tests were performed using ordinary one-way ANOVA with multiple comparisons to DMSO treated cells as a control and a Dunnett's post-test; *, p<0.05; **, p<0.01; ***, p<0.001; ****, p<0.0001.
For the prophylactic treatment analysis, the plaque assay was performed on ARPE-19 and NHDF cells (4×10^4) in a 24-well plate. The cells were pretreated for 1 hour with either MBX-4992 or MBXC-4336 (1-50 μM), DMSO, or ganciclovir (2.5 μM) and followed by virus infection with AD169^R. Following a 2-hour incubation at 37° C., the inoculum was removed and cells were overlaid with 1% low melt sea agarose. Upon solidification of the agarose, MBX-4992, MBXC-4336, DMSO, or ganciclovir in media was added at the indicated concentration. The drugs were replaced every 3 days. The cells were examined using Brightfield and GFP fluorescence to quantify the number and size of virus plaques using a Celigo Cytometer at 10 dpi.
To address whether NAPA compounds can limit virus dissemination in epithelial cells, we analyzed the inhibitory properties of MBX-4992 and MBXC-4336 using a plaque reduction assay by designating a cluster of virus infected cells as a virus plaque (Parsons et al., Antivir. Res., 193:105124 (2021)) The results are shown in FIG. 8A-H.
To evaluate the prophylactic function of the NAPA compounds, ARPE-19 cells and NHDF cells treated with DMSO, MBX-4992, MBXC-4336 (0-50 μM), or ganciclovir (2.5 μM) were infected with AD169^R CMV virus and analyzed for virus plaques at 10 dpi based on GFP fluorescence (FIG. 8A-F). A cluster of virus infected cells was designated a viral plaque based on an average cluster area of 5,000 μm^2 or 10,000 μm^2 (FIG. 8A-B) using a Celigo cytometer.

[8] = system: TB40/E; experiment: Plaque assay, MBX-4992 and ganciclovir alone and in combination; type: cell-based, Human cytomegalovirus; conditions: ARPE-19 and NHDF cells, 10 dpi; MBX-4992 1-20 μM, ganciclovir 2.5 μM
Experimental: At 10 day post-infection, representative whole well images of plaques >10,000 μm^2 (A and B) were quantified based on GFP fluorescence intensity and calculated relative to DMSO controls (C and D). Statistical tests were performed using ordinary one-way ANOVA with multiple comparisons to DMSO treated cells as a control and a Dunnett's post-test. *, p<0.05; **, p<0.01; ***, p<0.001; ****, p<0.0001.
At 10 days post-infection, representative whole well images of plaques >10,000 μm^2 (A and B) were quantified based on GFP fluorescence intensity and calculated relative to DMSO controls (C and D).

[9] = system: AD169^R; experiment: Virus pre-incubation / washout study; type: cell-based, Human cytomegalovirus; conditions: virus pre-incubated, compound washed out; MBX-4992 10 μM, heparin 50 μg/ml
Experimental: (B) Based on the schematic, AD169^R (MOI 0.2) was pre-incubated with DMSO, MBX-4992, or heparin for one hour before being added to NHDF cells. Virus/compound mix was washed out after 30 minutes as indicated and either unchanged or replaced with media containing DMSO, MBX-4992, or heparin. Virus infection was quantified at 24 hpi GFP fluorescence. Percent infection was normalized to untreated cells.
NHDF cells (10^4) plated overnight in a 96-well plate were incubated at 4° C. for 30 minutes with AD169^R CMV virus pretreated with MBX-4992 (10 μM), Heparin (50 μg/mL) or DMSO for 1 hour at room temperature (in triplicate). For 2/3rd of the samples, media was aspirated and half of the wells received DMSO media, regardless of which drug the virus was exposed to, or MBX-4992 (10 μM), or Heparin (50 μg/mL) overnight. At 18 hpi, the cells were fixed with 4% paraformaldehyde, stained with a rabbit anti-IE1 antibody followed by an anti-rabbit Alexa 647, and analyzed using the Celigo cytometer. The DMSO condition that was not aspirated post binding was set as 100% infection.
To further characterize the mechanism of action, pre-incubation/washout studies were performed using AD169^R and MBX-4992. […] At 18 hpi, cells were immunostained with an anti-IE1 antibody as a readout for infection and quantified using a Celigo cytometer. […]

[10] = system: AD169^R; experiment: Cells pre-incubation / washout study; type: cell-based, Human cytomegalovirus; conditions: cells pre-treated; drugs not removed or added back to washed-out cells
Experimental: (C) NHDF cells were pre-incubated with DMSO, MBX-4992 or heparin prior to virus addition. After addition of AD169^R (MOI 0.2) for 30 min, media was either unchanged or replaced with media containing DMSO, MBX-4992, or heparin. Virus infection was quantified at 24 hpi by GFP fluorescence. Percent infection was normalized to untreated cells. Statistical tests were performed using ordinary one-way ANOVA with multiple comparisons to DMSO treated cells as a control and a Dunnett's post-test: *, p<0.05; ****, p<0.0001.
NHDF cells (10^4) plated overnight in a 96-well plate were pretreated with MBX-4992 (10 μM), heparin (50 μg/mL) or DMSO for 1 hour at 37° C. The plate was then placed at 4° C. for 5 minutes followed by the addition of AD169^R CMV virus for 30 minutes. 2/3rd of the samples were aspirated post binding. Half of those samples received DMSO media, regardless of the drug the cells were previously exposed to. The remaining wells received either MBX-4992 (10 μM) or Heparin (50 μg/mL) overnight. At 18 hpi, the cells were fixed with 4% paraformaldehyde, stained with a rabbit anti-IE1 antibody followed by an anti-rabbit Alexa 647, and analyzed using the Celigo cytometer. The DMSO condition that was not aspirated post binding was set as 100% infection.
We next examined whether pre-treating cells with MBX-4992 can limit virus infection. Cells were pre-treated with MBX-4992 or heparin for […] followed by the addition of AD169^R for 30 min at 4° C. The cells were either washed out or unchanged as indicated and replaced with media containing DMSO, MBX-4992, or heparin followed by incubation at 37° C. At 18 hpi, virus infection was evaluated using a Celigo cytometer.

C[C@@H]1C[C@@H]([C@H](O)CC2CC(=O)NC(=O)C2)C(=O)[C@@H](C)C1 [cycloheximide, reference compound]
cell number [1]: dramatic decrease in cell number and luciferase activity
luciferase signal (ATP levels) [2]: dramatic decrease in cell number and luciferase activity

Nc1nc(O)c2ncn(COC(CO)CO)c2n1 [ganciclovir, reference compound]
IE1 expression by immunoblot [3]: did not impact infection
pIC50 [4]: 6.05
pIC50 [5]: 4.98
pIC50 [6]: 6.70
reduction of plaque number [7]: ~50%
viral plaques >10,000 μm^2, single drug [8]: decreased

heparin [reference compound]
decrease of infection after washing out [9]: positive control for inhibition
virus infection, drug not removed or added back [10]: significantly inhibited virus infection
